The term pIC50 denotes the negative decadic logarithm of the IC50, by convention in mol/L. A high value points to a small IC50. Usually microsomal CLint stands for the capacity of the preparation to metabolise the compound, expressed as a volume cleared per time. Low readings indicate greater metabolic stability, high ones faster metabolism. A word on the clearance: it is a measure of how efficiently the substance is removed, as volume per time.

Results on 1 compound are retold here after ChEMBL document CHEMBL3259563, “The discovery of potent and selective non-steroidal glucocorticoid receptor modulators, suitable for inhalation” (Bioorg Med Chem Lett, 2014).

Data set [1] in a line: Thermodynamic solubility of the crystalline compound in 0.1 M phosphate buffer at pH 7.4 at 25 degC after 24 hrs. It is filed as physicochemical. Conditions: read-out: Therm_solubility; call rule not given here.
Data set [2] deals with Cytochrome P450 2C19 (Homo sapiens, UniProt P33261). Put plainly: Inhibition of CYP2C19 (unknown origin). It is filed as ADME.
Data set [3] in a line: Volume of distribution at steady state in iv dosed rat. The class given is ADME, organism-based. The note with it: in vivo, read-out: Vdss.
Data set [4] is described as follows: Intrinsic clearance in human microsomes. It is filed as ADME, Microsome.
Data set [5] deals with Plasma. As to the kind of experiment: Fraction unbound in human plasma. It is filed as ADME, cell-free.
Data set [6] can be described thus: Thermodynamic solubility of the amorphous compound in 0.1 M phosphate buffer at pH 7.4 at 25 degC after 24 hrs. The class given is physicochemical. The note with it: read-out: Therm_solubility.
For data set [7], the system named is Lung. As to the kind of experiment: Drug uptake in intratracheally dosed rat lung after 4 hrs. The class given is ADME, organism-based. Conditions: in vivo, inhaled_or_intranasal.
The target in data set [8] is T1, Mineralocorticoid receptor (Homo sapiens, UniProt P08235).
T1 sequence (P08235 whole entry): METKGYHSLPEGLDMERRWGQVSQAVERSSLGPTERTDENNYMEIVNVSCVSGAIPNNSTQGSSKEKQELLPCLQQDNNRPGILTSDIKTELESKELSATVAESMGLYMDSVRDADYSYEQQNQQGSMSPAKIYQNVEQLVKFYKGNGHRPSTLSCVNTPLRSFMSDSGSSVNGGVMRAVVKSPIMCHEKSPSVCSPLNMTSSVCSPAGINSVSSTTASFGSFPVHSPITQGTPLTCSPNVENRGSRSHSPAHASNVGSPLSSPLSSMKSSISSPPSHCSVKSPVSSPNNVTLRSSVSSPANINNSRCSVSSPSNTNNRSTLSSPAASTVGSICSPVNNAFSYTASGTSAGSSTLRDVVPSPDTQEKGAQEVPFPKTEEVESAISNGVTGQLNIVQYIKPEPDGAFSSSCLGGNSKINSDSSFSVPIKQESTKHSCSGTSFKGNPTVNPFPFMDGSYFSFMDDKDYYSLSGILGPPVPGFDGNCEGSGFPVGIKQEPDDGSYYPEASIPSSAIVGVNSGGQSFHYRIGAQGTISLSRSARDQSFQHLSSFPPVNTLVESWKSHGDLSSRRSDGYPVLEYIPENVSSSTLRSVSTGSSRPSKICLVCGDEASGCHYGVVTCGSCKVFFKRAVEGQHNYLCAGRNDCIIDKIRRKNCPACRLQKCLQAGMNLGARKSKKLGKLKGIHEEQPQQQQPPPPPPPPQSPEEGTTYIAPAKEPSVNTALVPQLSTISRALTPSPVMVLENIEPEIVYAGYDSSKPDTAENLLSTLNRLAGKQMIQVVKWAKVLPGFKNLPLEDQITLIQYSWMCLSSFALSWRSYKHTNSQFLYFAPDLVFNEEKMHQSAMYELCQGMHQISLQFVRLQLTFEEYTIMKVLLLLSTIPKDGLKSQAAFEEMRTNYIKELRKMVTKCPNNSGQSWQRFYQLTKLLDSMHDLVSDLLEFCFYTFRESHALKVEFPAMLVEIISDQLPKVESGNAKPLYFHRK
As to the kind of experiment: Binding affinity to mineralocorticoid receptor (unknown origin).

The nature of data set [9]: Clearance in iv dosed rat. The class given is ADME, organism-based. Conditions: in vivo.
In data set [10] the target is Estrogen receptor beta (Homo sapiens, UniProt Q92731). As to the kind of experiment: Binding affinity to ER-beta (unknown origin).
For data set [11], the target named is T2, Glucocorticoid receptor (Homo sapiens, UniProt P04150).
T2 sequence (P04150 whole entry): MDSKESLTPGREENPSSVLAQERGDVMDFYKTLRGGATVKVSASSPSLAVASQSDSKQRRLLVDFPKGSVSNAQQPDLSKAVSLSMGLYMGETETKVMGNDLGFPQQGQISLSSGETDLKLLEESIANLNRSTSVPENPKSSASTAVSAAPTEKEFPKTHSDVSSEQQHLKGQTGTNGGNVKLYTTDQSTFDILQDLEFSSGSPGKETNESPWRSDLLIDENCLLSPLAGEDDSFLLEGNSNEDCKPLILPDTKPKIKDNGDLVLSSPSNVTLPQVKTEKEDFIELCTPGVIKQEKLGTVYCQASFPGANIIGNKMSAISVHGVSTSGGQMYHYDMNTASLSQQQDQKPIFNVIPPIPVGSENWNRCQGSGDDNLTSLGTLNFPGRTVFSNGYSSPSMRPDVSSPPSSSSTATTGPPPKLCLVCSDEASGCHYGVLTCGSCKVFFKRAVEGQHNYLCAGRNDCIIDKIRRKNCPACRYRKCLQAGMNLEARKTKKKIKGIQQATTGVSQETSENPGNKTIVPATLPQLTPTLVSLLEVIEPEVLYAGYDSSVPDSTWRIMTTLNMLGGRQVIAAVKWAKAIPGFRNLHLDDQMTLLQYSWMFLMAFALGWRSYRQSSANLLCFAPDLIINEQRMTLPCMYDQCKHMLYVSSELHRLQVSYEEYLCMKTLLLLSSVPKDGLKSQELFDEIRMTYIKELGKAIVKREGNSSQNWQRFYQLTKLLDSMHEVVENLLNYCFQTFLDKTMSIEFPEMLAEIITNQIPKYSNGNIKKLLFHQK
Description: Agonist activity at glucocorticoid receptor in human Chago K1 cells assessed as gene transrepression by Lac-Z reporter gene assay

In data set [12] the target is Cytochrome P450 2D6 (Homo sapiens, UniProt P10635). As to the kind of experiment: Inhibition of CYP2D6 (unknown origin). It is filed as ADME.
For data set [13], the target named is T3, Estrogen receptor (Homo sapiens, UniProt P03372).
T3 sequence (P03372 whole entry): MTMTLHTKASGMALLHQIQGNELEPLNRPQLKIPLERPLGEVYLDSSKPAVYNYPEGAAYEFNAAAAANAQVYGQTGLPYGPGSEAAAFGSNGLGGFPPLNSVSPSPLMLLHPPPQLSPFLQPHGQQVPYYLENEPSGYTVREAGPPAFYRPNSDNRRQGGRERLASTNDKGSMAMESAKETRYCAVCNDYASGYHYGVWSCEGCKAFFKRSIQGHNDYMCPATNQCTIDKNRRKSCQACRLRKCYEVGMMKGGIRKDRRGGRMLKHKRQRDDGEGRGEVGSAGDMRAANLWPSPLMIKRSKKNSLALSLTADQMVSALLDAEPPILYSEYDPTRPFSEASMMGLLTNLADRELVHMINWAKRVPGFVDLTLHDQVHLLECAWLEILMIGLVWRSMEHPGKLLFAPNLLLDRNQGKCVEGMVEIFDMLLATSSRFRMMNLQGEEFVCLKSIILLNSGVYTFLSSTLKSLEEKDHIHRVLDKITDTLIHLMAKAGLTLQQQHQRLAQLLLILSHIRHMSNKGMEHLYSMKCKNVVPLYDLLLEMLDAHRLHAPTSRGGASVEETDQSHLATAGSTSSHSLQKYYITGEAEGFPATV
Put plainly: Binding affinity to ER-alpha (unknown origin).

In data set [14] the target is Cytochrome P450 3A4 (Homo sapiens, UniProt P08684). As to the kind of experiment: Inhibition of CYP3A4 (unknown origin). It is filed as ADME.

pIC50: −log10 of the molar value. Values after ≈ are worked out from the molar mass of the structure shown. Bounds are passed on as bounds.

Sequence of Cytochrome P450 2C19 (P33261 whole entry): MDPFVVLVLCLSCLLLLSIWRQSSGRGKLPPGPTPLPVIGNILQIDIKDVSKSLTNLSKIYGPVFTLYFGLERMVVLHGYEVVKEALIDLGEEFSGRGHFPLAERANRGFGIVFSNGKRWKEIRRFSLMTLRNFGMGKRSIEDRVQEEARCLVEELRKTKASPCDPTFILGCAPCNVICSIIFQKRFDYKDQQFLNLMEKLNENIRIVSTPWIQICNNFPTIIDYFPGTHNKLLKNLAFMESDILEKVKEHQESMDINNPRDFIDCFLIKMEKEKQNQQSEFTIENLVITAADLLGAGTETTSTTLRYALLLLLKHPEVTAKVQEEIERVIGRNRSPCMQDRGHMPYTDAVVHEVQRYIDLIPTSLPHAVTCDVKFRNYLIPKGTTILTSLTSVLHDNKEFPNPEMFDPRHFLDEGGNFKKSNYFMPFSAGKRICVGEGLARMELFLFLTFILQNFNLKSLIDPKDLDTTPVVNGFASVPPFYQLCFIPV
Sequence of Estrogen receptor beta (Q92731 whole entry): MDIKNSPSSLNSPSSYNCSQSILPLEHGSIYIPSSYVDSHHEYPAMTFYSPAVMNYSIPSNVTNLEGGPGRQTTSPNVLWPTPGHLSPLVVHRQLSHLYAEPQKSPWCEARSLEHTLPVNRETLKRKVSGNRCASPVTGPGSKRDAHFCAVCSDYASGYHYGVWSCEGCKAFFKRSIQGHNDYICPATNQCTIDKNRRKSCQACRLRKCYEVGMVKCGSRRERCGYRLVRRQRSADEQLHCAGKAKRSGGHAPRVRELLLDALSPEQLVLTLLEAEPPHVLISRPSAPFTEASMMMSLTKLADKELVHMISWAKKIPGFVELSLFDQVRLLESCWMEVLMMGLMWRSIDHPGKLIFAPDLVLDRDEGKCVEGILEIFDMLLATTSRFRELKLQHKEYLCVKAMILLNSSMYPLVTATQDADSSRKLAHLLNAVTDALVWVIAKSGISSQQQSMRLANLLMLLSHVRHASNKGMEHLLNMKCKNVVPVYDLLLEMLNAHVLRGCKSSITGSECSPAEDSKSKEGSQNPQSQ
Sequence of Cytochrome P450 3A4 (P08684 whole entry): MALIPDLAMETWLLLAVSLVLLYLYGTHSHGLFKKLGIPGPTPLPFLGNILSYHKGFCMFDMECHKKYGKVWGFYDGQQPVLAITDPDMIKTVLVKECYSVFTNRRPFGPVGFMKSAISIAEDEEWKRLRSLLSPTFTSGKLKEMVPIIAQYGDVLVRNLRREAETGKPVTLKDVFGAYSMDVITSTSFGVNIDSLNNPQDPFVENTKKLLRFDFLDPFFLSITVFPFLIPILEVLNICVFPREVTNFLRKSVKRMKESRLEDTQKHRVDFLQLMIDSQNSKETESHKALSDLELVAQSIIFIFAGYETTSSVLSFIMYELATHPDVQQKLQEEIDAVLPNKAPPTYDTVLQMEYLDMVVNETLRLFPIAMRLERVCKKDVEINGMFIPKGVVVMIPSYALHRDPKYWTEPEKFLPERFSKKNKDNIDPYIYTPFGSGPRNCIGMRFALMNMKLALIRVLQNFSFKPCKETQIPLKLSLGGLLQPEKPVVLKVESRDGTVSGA
Sequence of Cytochrome P450 2D6 (P10635 whole entry): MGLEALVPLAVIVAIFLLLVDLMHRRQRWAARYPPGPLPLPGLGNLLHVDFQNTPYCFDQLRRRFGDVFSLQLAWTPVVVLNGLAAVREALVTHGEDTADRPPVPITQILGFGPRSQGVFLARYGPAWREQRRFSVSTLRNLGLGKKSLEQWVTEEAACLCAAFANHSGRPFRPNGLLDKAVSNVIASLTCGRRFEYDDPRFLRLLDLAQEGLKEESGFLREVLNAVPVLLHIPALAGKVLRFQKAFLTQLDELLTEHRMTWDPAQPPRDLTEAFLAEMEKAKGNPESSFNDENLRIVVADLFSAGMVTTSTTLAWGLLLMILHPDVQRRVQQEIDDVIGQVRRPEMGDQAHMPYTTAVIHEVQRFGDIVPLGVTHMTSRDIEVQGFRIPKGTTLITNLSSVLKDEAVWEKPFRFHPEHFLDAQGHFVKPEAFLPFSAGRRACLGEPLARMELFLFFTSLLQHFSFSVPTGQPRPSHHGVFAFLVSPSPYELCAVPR

Take `Cc1nn(C2CCCC2)c(C)c1S(=O)(=O)N[C@@H](C)CNc1cccc2c1cnn2-c1ccc(F)nc1`: the solubility thermodynamic at 24 h in data set [1] amounted to 1.5 µM (≈ 0.767 µg/mL); in data set [6], 22 µM (≈ 11.3 µg/mL). Also, the pIC50 is less than 4.70 in data set [2]; less than 5.30 in [8]; less than 5.30 in data set [10]; 8.14 in data set [11]; less than 4.70 in data set [12]; less than 5.30 in [13]. Moreover, the pIC50 in data set [14] was 4.66. The Vd in [3] is 15 L/kg. Also, the microsomal CLint in [4] is greater than 200 µL/min/mg. In addition, in data set [5], the Fu was 0.005%. Moreover, the Drug uptake result in data set [7] was “Active”. In data set [9], this compound had a clearance of 78 mL/min/kg.
